What was measured:
[1] = tested on: LPS-induced TNFα in monocytes; assay: Monocytes assay: LPS-triggered TNFα (ELISA); format: cell-based, human; conditions: Homo sapiens, Monocyte, LPS 200 ng/mL, supernatant after 4 h
Summary of the method: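 Supernatant TNFα was quantified by luminol-based sandwich ELISA after 4 h stimulation with LPS (200 ng/mL final). The cells were CD14-bead-purified monocytes from human PBMCs, 100 000 per well, exposed to 3-fold compound dilutions for 1 h at 37° C beforehand, with DMSO at 0.2%. Results are reported as percent inhibition.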

SIK3 = target: T1, SIK3 (Homo sapiens, UniProt Q9Y2K2); assay: ADP-Glo kinase assay, SIK3; format: biochemical; conditions: ADP-Glo SIK kinase assay
T1 construct: purchased SignalChem S12-11G-100
Summary of the method: (§1)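 Wells with 1% DMSO or 10 μM staurosporine (final) define the control window. The kinase reaction with substrate and ATP runs 120 min at RT, followed by ADP-Glo detection: ATP depletion (40 min) and ADP-derived luminescence (30 min).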

SIK2 = target: T2, SIK2 (Homo sapiens, UniProt Q9H0K1); assay: ADP-Glo kinase assay, SIK2; format: biochemical; conditions: ADP-Glo SIK kinase assay
T2 construct: purchased ThermoFisher Scientific PV4792
Summary of the method: as §1

[2] = tested on: LPS triggered IL-10 secretion in monocytes; assay: Monocytes assay: LPS-triggered IL-10 (ELISA); format: cell-based, human; conditions: LPS 200 ng/mL, supernatant after 4 h, maximal fold change vs LPS only
Summary of the method: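 Human CD14+ monocytes, magnetically isolated from buffy-coat PBMCs, were seeded at 100 000 cells/well and preincubated with compound for 1 h at 37° C (0.2% DMSO). LPS was then added at a final 200 ng/mL for 4 h. Supernatant IL-10 was quantified by chemiluminescent sandwich ELISA against a standard curve.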

SIK1 = target: T3, SIK1 (Homo sapiens, UniProt P57059); assay: ADP-Glo kinase assay, SIK1; format: biochemical; conditions: ADP-Glo SIK kinase assay
T3 construct: purchased Carna Biosciences 02-131
Summary of the method: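 ADP-Glo, RT throughout. Enz/substrate + ATP, 120 min; ADP-Glo reagent 40 min (ATP depletion); detection reagent 30 min; luminescence read. Neg ctrl 1% DMSO, pos ctrl 10 μM staurosporine, final concs.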

T2 sequence (Q9H0K1 whole entry): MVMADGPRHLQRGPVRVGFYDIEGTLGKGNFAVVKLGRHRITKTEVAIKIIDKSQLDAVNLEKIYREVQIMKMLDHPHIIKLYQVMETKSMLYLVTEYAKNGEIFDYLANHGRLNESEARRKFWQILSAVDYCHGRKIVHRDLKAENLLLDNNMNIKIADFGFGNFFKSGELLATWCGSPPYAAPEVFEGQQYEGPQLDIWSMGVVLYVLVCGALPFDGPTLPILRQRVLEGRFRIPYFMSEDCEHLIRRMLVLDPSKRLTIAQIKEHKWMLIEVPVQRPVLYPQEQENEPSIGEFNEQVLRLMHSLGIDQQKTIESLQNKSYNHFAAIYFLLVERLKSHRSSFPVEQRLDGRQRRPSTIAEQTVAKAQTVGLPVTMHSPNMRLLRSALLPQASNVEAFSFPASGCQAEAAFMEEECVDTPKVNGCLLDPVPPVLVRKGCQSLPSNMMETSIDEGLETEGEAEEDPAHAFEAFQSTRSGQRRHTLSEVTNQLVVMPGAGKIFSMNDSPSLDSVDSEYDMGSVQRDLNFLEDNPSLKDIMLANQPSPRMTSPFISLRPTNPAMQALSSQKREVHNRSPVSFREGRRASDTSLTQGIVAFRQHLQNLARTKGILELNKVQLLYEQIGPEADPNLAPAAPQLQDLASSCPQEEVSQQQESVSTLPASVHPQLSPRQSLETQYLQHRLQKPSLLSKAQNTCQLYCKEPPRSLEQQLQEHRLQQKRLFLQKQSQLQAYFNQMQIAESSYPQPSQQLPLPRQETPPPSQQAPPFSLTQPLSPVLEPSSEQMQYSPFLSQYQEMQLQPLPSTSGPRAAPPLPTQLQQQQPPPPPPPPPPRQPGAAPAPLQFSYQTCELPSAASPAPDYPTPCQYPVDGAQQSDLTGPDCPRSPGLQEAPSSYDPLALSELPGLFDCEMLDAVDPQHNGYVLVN
T1 sequence (Q9Y2K2 whole entry): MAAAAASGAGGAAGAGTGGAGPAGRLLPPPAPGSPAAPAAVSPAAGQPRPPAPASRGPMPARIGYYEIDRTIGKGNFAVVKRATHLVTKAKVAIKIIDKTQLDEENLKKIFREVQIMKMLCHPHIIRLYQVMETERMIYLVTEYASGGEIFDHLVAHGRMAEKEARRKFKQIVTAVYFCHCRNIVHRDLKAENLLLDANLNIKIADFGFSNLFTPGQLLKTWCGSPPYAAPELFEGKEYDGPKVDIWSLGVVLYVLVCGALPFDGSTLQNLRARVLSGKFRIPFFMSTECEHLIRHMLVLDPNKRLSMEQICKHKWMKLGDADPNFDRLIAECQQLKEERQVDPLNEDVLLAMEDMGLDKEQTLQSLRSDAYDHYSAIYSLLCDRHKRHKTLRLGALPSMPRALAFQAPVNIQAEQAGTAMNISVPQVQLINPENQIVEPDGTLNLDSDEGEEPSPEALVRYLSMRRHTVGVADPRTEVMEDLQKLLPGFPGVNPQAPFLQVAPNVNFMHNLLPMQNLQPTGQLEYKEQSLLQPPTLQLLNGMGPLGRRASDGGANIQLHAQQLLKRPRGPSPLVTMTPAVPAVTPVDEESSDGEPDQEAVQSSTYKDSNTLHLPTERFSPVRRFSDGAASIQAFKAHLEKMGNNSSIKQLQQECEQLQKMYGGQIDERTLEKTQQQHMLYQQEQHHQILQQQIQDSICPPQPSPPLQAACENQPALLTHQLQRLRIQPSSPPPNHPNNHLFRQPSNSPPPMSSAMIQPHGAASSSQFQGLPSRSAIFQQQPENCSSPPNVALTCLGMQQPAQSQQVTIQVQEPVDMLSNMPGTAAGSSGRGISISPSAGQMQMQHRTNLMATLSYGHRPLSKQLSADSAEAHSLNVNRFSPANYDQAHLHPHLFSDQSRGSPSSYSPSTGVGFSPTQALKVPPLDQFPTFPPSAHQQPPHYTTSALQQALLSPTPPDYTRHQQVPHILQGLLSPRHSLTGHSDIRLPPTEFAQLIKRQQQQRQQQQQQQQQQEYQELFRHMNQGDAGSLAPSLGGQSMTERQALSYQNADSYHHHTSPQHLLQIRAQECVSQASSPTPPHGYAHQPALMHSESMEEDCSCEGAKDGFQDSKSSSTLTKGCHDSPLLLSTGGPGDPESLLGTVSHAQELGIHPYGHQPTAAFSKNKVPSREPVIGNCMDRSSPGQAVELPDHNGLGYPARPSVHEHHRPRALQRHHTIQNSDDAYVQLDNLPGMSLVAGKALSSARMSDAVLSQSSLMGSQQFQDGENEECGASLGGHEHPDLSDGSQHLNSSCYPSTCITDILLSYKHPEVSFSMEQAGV
T3 sequence (P57059 whole entry): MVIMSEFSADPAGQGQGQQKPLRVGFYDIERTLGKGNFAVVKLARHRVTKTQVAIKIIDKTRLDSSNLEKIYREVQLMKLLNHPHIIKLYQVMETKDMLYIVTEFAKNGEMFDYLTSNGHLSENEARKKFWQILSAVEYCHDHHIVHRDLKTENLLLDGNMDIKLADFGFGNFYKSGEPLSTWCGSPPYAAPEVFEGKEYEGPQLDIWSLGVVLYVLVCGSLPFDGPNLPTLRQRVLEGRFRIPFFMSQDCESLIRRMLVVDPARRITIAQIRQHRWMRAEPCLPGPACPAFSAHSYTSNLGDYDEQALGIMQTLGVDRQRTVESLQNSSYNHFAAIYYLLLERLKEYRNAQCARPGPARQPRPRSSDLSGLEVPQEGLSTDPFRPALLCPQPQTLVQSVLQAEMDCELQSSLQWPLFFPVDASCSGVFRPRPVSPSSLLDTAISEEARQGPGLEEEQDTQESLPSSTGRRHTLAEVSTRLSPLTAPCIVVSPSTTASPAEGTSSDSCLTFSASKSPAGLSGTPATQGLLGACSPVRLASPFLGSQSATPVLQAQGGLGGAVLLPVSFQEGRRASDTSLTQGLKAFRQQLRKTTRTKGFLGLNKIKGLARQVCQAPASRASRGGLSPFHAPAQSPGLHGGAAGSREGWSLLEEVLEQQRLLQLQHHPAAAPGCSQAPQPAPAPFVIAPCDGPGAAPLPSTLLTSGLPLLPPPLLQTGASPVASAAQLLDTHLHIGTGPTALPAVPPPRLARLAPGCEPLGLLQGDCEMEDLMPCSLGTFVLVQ

| SMILES | EC50 ([1]; 4 h) [nM] | IC50 (SIK3) [nM] | IC50 (SIK2) [nM] | IC50 (SIK1) [nM] | IL-10 FCmax median [2] | EC50 [1] [nM] |
| --- | --- | --- | --- | --- | --- | --- |
| COc1cc(-c2cnc3cc(OCC(O)CN4CCS(=O)(=O)CC4)ccn23)cc(OC(F)F)c1C(=O)NC1CC1 (stereo not drawn) [compound 374, N-cyclopropyl-2-(difluoromethoxy)-4-[7-[3-(1,1-dioxo-1,4-thiazinan-4-yl)-2-hydroxy-propoxy]imidazo[1,2-a]pyridin-3-yl]-6-methoxy-benzamide] | 100 to 1000 | 0.01 to 10 | 0.01 to 10 | 10 to 100 | +++ (>4.5) |  |
| COc1cc(-c2cnc3cc(OCC(O)CN4CC(O)(C(F)(F)F)C4)ccn23)cc(OC(F)F)c1C(=O)NC1CC1 (stereo not drawn) [compound 375, N-cyclopropyl-2-(difluoromethoxy)-4-[7-[2-hydroxy-3-[3-hydroxy-3-(trifluoromethyl)azetidin-1-yl]propoxy]imidazo[1,2-a]pyridin-3-yl]-6-methoxy-benzamide] | 100 to 1000 | 0.01 to 10 | 0.01 to 10 | 10 to 100 | +++ (>4.5) |  |
| CCOC(=O)C1CCN(CCCOc2ccn3c(-c4cc(OC)c(C(=O)NC5CC5)c(OC(F)F)c4)cnc3c2)CC1 [compound 377, ethyl 1-[3-[3-[4-(cyclopropylcarbamoyl)-3-(difluoromethoxy)-5-methoxy-phenyl]imidazo[1,2-a]pyridin-7-yl]oxypropyl]piperidine-4-carboxylate] | 0.1 to 100 | 0.01 to 10 | 0.01 to 10 | 10 to 100 | ++ (>1.5-4.5) |  |
| CCOC(=O)C1(c2ccccc2)CCN(CCCOc2ccn3c(-c4cc(OC)c(C(=O)NC5CC5)c(OC(F)F)c4)cnc3c2)CC1 [compound 378, ethyl 1-[3-[3-[4-(cyclopropylcarbamoyl)-3-(difluoromethoxy)-5-methoxy-phenyl]imidazo[1,2-a]pyridin-7-yl]oxypropyl]-4-phenyl-piperidine-4-carboxylate] |  | 0.01 to 10 | 0.01 to 10 | 10 to 100 | ++ (>1.5-4.5) | 0.1 to 100 |
| COc1cc(-c2cnc3cc(OCC(O)CN4CCC(O)CC4)ccn23)cc(OC(F)F)c1C(=O)NC1CC1 (stereo not drawn) [compound 379, N-cyclopropyl-2-(difluoromethoxy)-4-[7-[2-hydroxy-3-(4-hydroxy-1-piperidyl)propoxy]imidazo [1,2-a]pyridin-3-yl]-6-methoxy-benzamide] | 100 to 1000 | 0.01 to 10 | 0.01 to 10 | 10 to 100 | ++ (>1.5-4.5) |  |
| CCOC(=O)C1(C)CCN(CCCOc2ccn3c(-c4cc(OC)c(C(=O)NC5CC5)c(OC(F)F)c4)cnc3c2)CC1 [compound 380, ethyl 1-[3-[3-[4-(cyclopropylcarbamoyl)-3-(difluoromethoxy)-5-methoxy-phenyl]imidazo[1,2-a]pyridin-7-yl]oxypropyl]-4-methyl-piperidine-4-carboxylate] | 0.1 to 100 | 0.01 to 10 | 0.01 to 10 | 10 to 100 | ++ (>1.5-4.5) |  |
| CCOC(=O)C1(O)CCN(CCCOc2ccn3c(-c4cc(OC)c(C(=O)NC5CC5)c(OC(F)F)c4)cnc3c2)CC1 [compound 381, ethyl 1-[3-[3-[4-(cyclopropylcarbamoyl)-3-(difluoromethoxy)-5-methoxy-phenyl]imidazo[1,2-a]pyridin-7-yl]oxypropyl]-4-hydroxy-piperidine-4-carboxylate] | 0.1 to 100 | 0.01 to 10 | 0.01 to 10 | 10 to 100 | ++ (>1.5-4.5) |  |
| CCOC(=O)C1(C)CCN(CC(O)COc2ccn3c(-c4cc(OC)c(C(=O)NC5CC5)c(OC(F)F)c4)cnc3c2)CC1 (stereo not drawn) [compound 382, ethyl 1-[3-[3-[4-(cyclopropylcarbamoyl)-3-(difluoromethoxy)-5-methoxy-phenyl]imidazo[1,2-a]pyridin-7-yl]oxy-2-hydroxy-propyl]-4-methyl-piperidine-4-carboxylate] | 0.1 to 100 | 0.01 to 10 | 0.01 to 10 | 10 to 100 | ++ (>1.5-4.5) |  |

Continued, in another order:

| EC50 ([1]; 4 h) [nM] | IC50 (SIK3) [nM] | IC50 (SIK2) [nM] | IC50 (SIK1) [nM] | SMILES | IL-10 FCmax median [2] | EC50 [1] [nM] |
| --- | --- | --- | --- | --- | --- | --- |
| 100 to 1000 | 0.01 to 10 | 0.01 to 10 | 10 to 100 | CCOC(=O)C1(O)CCN(CC(O)COc2ccn3c(-c4cc(OC)c(C(=O)NC5CC5)c(OC(F)F)c4)cnc3c2)CC1 (stereo not drawn) [compound 383, ethyl 1-[3-[3-[4-(cyclopropylcarbamoyl)-3-(difluoromethoxy)-5-methoxy-phenyl]imidazo[1,2-a]pyridin-7-yl]oxy-2-hydroxy-propyl]-4-hydroxy-piperidine-4-carboxylate] | ++ (>1.5-4.5) |  |
| 0.1 to 100 | 0.01 to 10 | 0.01 to 10 | 10 to 100 | CCOC(=O)C1(C)CN(CCCOc2ccn3c(-c4cc(OC)c(C(=O)NC5CC5)c(OC(F)F)c4)cnc3c2)C1 [compound 385, ethyl 1-[3-[3-[4-(cyclopropylcarbamoyl)-3-(difluoromethoxy)-5-methoxy-phenyl]imidazo[1,2-a]pyridin-7-yl]oxypropyl]-3-methyl-azetidine-3-carboxylate] | +++ (>4.5) |  |
| 100 to 1000 | 0.01 to 10 | 0.01 to 10 | 10 to 100 | COC(=O)[C@@H]1CN(CC(O)COc2ccn3c(-c4cc(OC)c(C(=O)NC5CC5)c(OC(F)F)c4)cnc3c2)CCO1 (stereo partly drawn) [compound 388, methyl (2S)-4-[3-[3-[4-(cyclopropylcarbamoyl)-3-(difluoromethoxy)-5-methoxy-phenyl]imidazo[1,2-a]pyridin-7-yl]oxy-2-hydroxy-propyl]morpholine-2-carboxylate] | +++ (>4.5) |  |
| 0.1 to 100 | 0.01 to 10 | 0.01 to 10 | 10 to 100 | COc1cc(-c2cnc3cc(OCC(O)CN4CC(C(=O)OC(C)(C)C)C4)ccn23)cc(OC(F)F)c1C(=O)NC1CC1 (stereo not drawn) [compound 394, tert-butyl 1-[3-[3-[4-(cyclopropylcarbamoyl)-3-(difluoromethoxy)-5-methoxy-phenyl]imidazo[1,2-a]pyridin-7-yl]oxy-2-hydroxy-propyl]azetidine-3-carboxylate] | ++ (>1.5-4.5) |  |

From US12264156B2, “Compounds and pharmaceutical compositions thereof for the treatment of diseases” (GALAPAGOS NV, priority 2018, dated 2025)
